Test results from publication PMC9928118, “Funneling modulatory peptide design with generative models: Discovery and characterization of disruptors of calcineurin protein-protein interactions” (PLOS Computational Biology, 2023).

Tests used:
[1] = target: T1, Calcineurin (Cn) catalytic domain (Cn A), PxIxIT binding site (Homo sapiens, UniProt Q08209, L343A/M347D/Y341S); assay: Fluorescence polarization (FP) competition assay against FITC-labeled PVIVIT peptide; conditions: for Ability to compete with PVIVIT for Cn binding: 100nM FITC-labeled PVIVIT peptide, 4uM Cn A, result in words; for IC50: read-out: IC50 (competition with FITC-labeled PVIVIT peptide for Cn binding), 100nM FITC-labeled PVIVIT peptide, 4uM Cn A, variable peptide concentrations, 96-well plate, triplicate, single site inhibition model fit, NB = No binding
T1 construct: the gene encoding to residues 2–347 with substitutions Y341S, L343A, and M347D was expressed as a cleavable GST fusion protein; GST; made in house; host or cells: E. coli BL21
Description: Polarization levels were read and normalized values were fitted to a single site model.
Selected peptides were synthesized and their ability to specifically bind the Cn PxIxIT binding site was evaluated by FP competition assay (Methods).
The catalytic domain of Cn was expressed as described in [84, 85]. […] Growing in LB, after reaching to OD(600nm) = 0.8, protein expression was induced by the addition of 1 mM IPTG at 25°C. The cells were harvested after 16h and resuspended in PBS-based lysis buffer suitable for downstream purification onto GST column (Glutathione Sepharose 4 Fast Flow) of the soluble fraction after disrupted by sonication and remove of all non-soluble debris by centrifuge. Elution from the GST column was further purified by size exclusion chromatography with the superdex75 column.
Fluorescence measurements were performed on samples arrayed in a 96-well plate using Biotek HybridH1 reader equipped with a polarized optic system. All measurements were done in triplicate.

GST-tagged Cn [2] = assay: PEPperPRINT peptide microarray binding assay with GST-tagged Cn; conditions: GST-tagged Cn, mean over the duplicate spots (Location on chip)
Method in brief: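 Qualitative binding: peptides printed on a PEPperPRINT microarray were incubated overnight at 4 °C with 1 mg/ml GST-tagged Cn, then detected with Alexa-Fluor 647 anti-GST antibody. Log fluorescence was baseline-corrected, averaged over duplicate spots, Z-normalized and averaged across five repeats.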

GST-tagged Cn [3] = assay: as above; conditions: max over the duplicate spots (Location on chip)
[4] = target: T2, catalytic domain of Calcineurin (Cn A), residues 2-347 with Y341S, L343A, M347D (UniProt Q08209 2-347, Y341S | L343A | M347D); assay: fluorescence polarisation; competition: variable concentrations of non-labeled peptide added to 100 nM FITC-labeled PVIVIT peptide and 4 uM Cn A, 96-well plate, triplicate; fitted to a single site inhibition model; conditions: both partners purified
T2 construct: Calcineurin catalytic domain (calcineurin A), residues 2-347, with substitutions Y341S, L343A, M347D; Expressed as a cleavable GST fusion; source: E. coli BL21, purified (Glutathione Sepharose 4 Fast Flow, size exclusion on Superdex 75)
T2 sequence (Q08209 2-347 Y341S/L343A/M347D): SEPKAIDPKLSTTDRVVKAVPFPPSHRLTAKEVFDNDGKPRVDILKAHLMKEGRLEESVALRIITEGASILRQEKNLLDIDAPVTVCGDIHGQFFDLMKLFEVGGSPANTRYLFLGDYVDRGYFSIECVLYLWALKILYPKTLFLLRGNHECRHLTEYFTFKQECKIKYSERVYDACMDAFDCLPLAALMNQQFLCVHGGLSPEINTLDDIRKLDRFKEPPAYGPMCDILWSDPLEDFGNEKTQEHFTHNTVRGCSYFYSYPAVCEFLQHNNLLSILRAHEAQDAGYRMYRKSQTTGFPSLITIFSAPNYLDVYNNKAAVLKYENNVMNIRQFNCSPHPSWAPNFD

T1 sequence (Q08209 2-347 Y341S/L343A/M347D): as above

Molecule | Chip Fluorescence (mean) (GST-tagged Cn [2]) | Chip Fluorescence (max) (GST-tagged Cn [3]) | also measured
Ac-AAGAGVGIVITVTEAE-NH2 [rbmAKAP79] | – | – | Ability to compete with PVIVIT for Cn binding [1]: successfully competed with PVIVIT binding
Ac-ADGAGVGIVITVTEAE-NH2 [rbmAKAP79_2] | – | – | Ability to compete with PVIVIT for Cn binding [1]: successfully competed with PVIVIT binding
Ac-RTYINPFMLFEDMGSR-NH2 [rbmSFB3] | – | – | IC50 [1]: > 257 µM
Ac-TFHTNPQYRIKLEEPD-NH2 [rbmCAPN11_2] | – | – | IC50 [1]: > 257 µM
Ac-TFWTNPQYRIKLEEAD-NH2 [rbmCAPN11_3] | – | – | IC50 [1]: > 257 µM
Ac-TTAMNPQFFVQIPRTA-NH2 [CAPN11] | – | – | IC50 [1]: > 257 µM
TFWSNPQFKITLEEPD [SeqRBMlowT_5528] | 0.877 | 2.1472 | –
TFWSNPQFRLKLEDPD [SeqRBMlowT_6883] | 1.226 | 2.274 | –
TFWSNPQYRITLEDPD [SeqRBMlowT_78] | 0.4904 | 2.0958 | –
TFWTNPQFKFRLEDPD [SeqRBMlowT_7471] | 0.6593 | 2.466 | –
TFWTNPQFKVSLEEPD [SeqRBMlowT_97] | 0.2931 | 2.43 | –
TFWTNPQFRIKLEDED [SeqRBMlowT_645] | 1.091 | 2.265 | –
TFWTNPQFRIKLEEPD [SeqRBMlowT_8] | -0.1106 | 2.218 | –
TFWTNPQFRITLEEPD [SeqRBMlowT_11] | 0.7438 | 2.387 | –
TFWTNPQFRVHLEDED [SeqRBMlowT_4265] | 1.067 | 1.93 | –
TFWTNPQFVVSLPEED [SeqRBMlowT_8537] | -0.2871 | 2.16 | –
TFWTNPQITVTLAEDD [SeqRBMlowT_3250] | 1.296 | 2.572 | –
TFWTNPQYKITLEDED [SeqRBMlowT_7336] | 1.363 | 2.0782 | –

Molecule | Chip Fluorescence (mean) (GST-tagged Cn [2]) | Chip Fluorescence (max) (GST-tagged Cn [3]) | also measured
TFWTNPQYKITLEDPD [SeqRBMlowT_219] | 1.018 | 2.355 | –
TFWTNPQYRIKLEEVD [SeqRBMlowT_627] | -1.639 | 1.99 | –
TFWTNPQYRITLEDPD [SeqRBMlowT_604] | -0.2036 | 2.534 | –
TFWTNPQYRLKLEEPD [SeqRBMlowT_264] | 0.9748 | 2.584 | –
TFWTNPQYVITLPEED [SeqRBMlowT_4660] | 0.3942 | 1.913 | –
VEALSSRYGMATNLTG [Seqshuffled_4257] | 0.2313 | 2.043 | –
WPWCRHPKKRNWLNWH [Seqrandom_9939] | 1.3152 | 2.4643 | –
YCQWSNRATQIGHKPT [Seqrandom_9979] | -0.2818 | 2.027 | –
YRQAVRFEMPLTACAP [Seqrandom_9969] | 0.771 | 2.355 | –
YTQIFPKCAMTIIKRK [Seqrandom_9966] | 0.5369 | 2.341 | –
Ac-HVSSSPRITITPTQHR-NH2 (cRBM-designed (low temperature sampling); source: synthetic peptide (peptide2 Inc)) [rbmRIPOR2_2] | – | – | IC50 [4]: 200 µM
Ac-ADEAIPEITITSAELP-NH2 (cRBM-designed (low temperature sampling); source: synthetic peptide (peptide2 Inc)) [rbmTRESK_2] | – | – | IC50 [4]: 60 µM
Ac-ADEAIPEIVISKPEEP-NH2 (cRBM-designed (low temperature sampling); source: synthetic peptide (peptide2 Inc)) [rbmTRESK] | – | – | IC50 [4]: 14 µM
Ac-AAGAGVGIVITVTEAE-NH2 (cRBM-designed (low temperature sampling); source: synthetic peptide (peptide2 Inc)) [rbmAKAP79] | – | – | IC50 [4]: 57 µM
Ac-ADGAGVGIVITVTEAE-NH2 (cRBM-designed (low temperature sampling); source: synthetic peptide (peptide2 Inc)) [rbmAKAP79_2] | – | – | IC50 [4]: 69 µM
Ac-ADEAVPQIIISAEELP-NH2 (source: synthetic peptide (peptide2 Inc)) [TRESK peptide] | – | – | IC50 [4]: 54 µM
Ac-ASVSNPEITVTSAETE-NH2 (cRBM-designed; source: synthetic peptide (peptide2 Inc)) [rbmRIPOR2] | – | – | IC50 [4]: 79 µM
Ac-TYWTNPQFRVTLEDPD-NH2 (cRBM-designed (low temperature sampling); (Schistosoma mansoni CAPN11), 2 mutations; source: synthetic peptide (peptide2 Inc)) [rbmCAPN11] | – | – | IC50 [4]: 257 µM
